Columns and labels:
[1] = target: T1, Muscarinic acetylcholine receptor M2 (Homo sapiens, UniProt P08172); assay type: cell membranes, CHO-K1, Membrane; conditions: cho-k1; also: in other assays of this panel Not Active means under 50% inhibition at 10 µM
T1 sequence (P08172 whole entry): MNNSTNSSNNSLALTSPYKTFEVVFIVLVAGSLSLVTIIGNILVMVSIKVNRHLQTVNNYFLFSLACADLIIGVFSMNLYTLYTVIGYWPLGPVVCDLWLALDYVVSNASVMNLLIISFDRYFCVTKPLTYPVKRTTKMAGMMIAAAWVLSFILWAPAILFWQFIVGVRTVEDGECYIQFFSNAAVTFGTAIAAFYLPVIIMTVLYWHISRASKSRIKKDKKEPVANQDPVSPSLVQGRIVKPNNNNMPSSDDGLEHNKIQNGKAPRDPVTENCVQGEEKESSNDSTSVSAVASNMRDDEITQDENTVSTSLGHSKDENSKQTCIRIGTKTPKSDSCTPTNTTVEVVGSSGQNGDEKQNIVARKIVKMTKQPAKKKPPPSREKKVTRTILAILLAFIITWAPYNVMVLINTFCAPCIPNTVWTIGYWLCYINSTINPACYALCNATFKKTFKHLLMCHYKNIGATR

[2] = target: Sodium-dependent dopamine transporter (Homo sapiens, UniProt Q01959); assay: DRUGMATRIX: Dopamine Transporter radioligand binding (ligand: [125I] RTI-55); assay type: cell membranes, CHO-K1, Membrane; conditions: Not Active = under 50% inhibition at 10 µM
[3] = target: T2, B2 bradykinin receptor (Homo sapiens, UniProt P30411); assay type: cell membranes, Membrane; conditions: chem-1; also: in other assays of this panel Not Active means under 50% inhibition at 10 µM
T2 sequence (P30411 whole entry): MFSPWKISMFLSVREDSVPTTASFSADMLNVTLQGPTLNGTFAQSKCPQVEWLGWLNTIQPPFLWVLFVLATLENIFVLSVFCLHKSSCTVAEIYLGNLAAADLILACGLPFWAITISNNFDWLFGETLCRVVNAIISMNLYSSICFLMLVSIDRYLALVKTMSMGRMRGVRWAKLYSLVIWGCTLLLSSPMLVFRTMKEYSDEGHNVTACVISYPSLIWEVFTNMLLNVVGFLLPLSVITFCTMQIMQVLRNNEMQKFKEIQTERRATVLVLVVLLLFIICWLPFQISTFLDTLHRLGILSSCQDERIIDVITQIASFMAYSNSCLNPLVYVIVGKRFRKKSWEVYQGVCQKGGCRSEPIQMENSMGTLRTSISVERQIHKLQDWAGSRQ

[4] = target: Kappa-type opioid receptor (Homo sapiens, UniProt P41145); assay: DRUGMATRIX: Opiate kappa (OP2, KOP) radioligand binding (ligand: [3H] Diprenorphine); assay type: cell membranes, HEK293, Membrane; conditions: Not Active = under 50% inhibition at 10 µM
[5] = target: T3, Progesterone receptor (Bos taurus, UniProt Q690N0); assay: DRUGMATRIX: Progesterone radioligand binding (ligand: [3H] R-5020); assay type: tissue-based, Uterus; conditions: Not Active = under 50% inhibition at 10 µM
T3 sequence (Q690N0 whole entry): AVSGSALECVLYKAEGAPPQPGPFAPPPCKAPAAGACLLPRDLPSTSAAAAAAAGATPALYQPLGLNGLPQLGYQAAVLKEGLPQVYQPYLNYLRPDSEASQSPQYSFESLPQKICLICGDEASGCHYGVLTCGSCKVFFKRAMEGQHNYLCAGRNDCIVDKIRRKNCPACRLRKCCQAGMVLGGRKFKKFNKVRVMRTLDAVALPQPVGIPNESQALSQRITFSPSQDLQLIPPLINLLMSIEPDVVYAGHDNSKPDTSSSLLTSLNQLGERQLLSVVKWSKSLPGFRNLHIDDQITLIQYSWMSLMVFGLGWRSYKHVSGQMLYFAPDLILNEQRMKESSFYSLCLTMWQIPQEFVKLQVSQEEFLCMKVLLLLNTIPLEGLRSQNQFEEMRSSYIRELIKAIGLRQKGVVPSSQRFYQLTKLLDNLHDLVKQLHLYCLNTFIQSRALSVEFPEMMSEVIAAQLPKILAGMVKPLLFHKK

[6] = target: T4, Angiotensin-converting enzyme (Oryctolagus cuniculus, UniProt P12822); assay type: tissue-based, Lung;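 also: enzymatic inhibition of angiotensin-converting enzyme measured with FAPGG as the substrate; in other assays of this panel Not Active means under 50% inhibition at 10 µM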
T4 sequence (P12822 whole entry): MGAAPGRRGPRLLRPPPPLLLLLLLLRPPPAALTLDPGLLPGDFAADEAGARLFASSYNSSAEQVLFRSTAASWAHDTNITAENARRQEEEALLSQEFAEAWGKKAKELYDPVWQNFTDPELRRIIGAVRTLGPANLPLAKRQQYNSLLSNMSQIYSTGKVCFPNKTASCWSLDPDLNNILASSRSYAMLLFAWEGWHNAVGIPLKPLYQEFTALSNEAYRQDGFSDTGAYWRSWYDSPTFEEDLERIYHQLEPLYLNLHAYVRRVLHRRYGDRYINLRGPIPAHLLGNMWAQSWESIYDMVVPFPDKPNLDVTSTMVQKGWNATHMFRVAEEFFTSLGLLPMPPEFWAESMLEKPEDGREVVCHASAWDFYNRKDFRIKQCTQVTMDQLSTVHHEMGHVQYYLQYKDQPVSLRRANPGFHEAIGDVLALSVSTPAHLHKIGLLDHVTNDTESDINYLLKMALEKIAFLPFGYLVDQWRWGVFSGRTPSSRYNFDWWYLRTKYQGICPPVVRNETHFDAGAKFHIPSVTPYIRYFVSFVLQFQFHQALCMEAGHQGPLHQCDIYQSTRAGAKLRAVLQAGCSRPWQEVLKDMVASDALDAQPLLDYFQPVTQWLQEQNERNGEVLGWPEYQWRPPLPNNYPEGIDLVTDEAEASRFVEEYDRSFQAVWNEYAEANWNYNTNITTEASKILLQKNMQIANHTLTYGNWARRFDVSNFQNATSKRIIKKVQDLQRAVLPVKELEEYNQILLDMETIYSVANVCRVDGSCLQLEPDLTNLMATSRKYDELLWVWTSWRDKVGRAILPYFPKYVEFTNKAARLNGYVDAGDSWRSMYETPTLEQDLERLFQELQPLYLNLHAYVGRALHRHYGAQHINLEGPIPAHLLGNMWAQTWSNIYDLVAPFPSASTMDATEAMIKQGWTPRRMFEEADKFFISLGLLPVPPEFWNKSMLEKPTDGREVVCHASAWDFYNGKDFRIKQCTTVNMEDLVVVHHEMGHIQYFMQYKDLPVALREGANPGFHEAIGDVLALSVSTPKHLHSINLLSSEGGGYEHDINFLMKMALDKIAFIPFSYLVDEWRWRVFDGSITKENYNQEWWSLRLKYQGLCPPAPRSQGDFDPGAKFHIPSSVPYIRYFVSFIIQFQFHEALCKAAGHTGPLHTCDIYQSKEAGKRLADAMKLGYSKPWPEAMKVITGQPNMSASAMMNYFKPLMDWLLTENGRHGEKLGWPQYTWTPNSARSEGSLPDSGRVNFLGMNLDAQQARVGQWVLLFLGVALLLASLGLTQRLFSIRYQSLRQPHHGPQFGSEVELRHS

Kappa-type opioid receptor, sequence (P41145 whole entry): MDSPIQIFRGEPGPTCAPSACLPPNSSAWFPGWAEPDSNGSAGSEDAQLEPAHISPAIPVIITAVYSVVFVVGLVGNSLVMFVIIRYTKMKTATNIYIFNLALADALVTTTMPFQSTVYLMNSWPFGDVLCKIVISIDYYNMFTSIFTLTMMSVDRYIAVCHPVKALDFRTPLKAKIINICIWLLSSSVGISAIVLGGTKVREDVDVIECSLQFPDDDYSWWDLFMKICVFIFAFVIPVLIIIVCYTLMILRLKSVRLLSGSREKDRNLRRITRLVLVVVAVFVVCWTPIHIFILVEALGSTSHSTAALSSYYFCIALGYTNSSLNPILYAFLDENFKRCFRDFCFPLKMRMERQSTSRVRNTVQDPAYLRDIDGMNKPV
Sodium-dependent dopamine transporter, sequence (Q01959 whole entry): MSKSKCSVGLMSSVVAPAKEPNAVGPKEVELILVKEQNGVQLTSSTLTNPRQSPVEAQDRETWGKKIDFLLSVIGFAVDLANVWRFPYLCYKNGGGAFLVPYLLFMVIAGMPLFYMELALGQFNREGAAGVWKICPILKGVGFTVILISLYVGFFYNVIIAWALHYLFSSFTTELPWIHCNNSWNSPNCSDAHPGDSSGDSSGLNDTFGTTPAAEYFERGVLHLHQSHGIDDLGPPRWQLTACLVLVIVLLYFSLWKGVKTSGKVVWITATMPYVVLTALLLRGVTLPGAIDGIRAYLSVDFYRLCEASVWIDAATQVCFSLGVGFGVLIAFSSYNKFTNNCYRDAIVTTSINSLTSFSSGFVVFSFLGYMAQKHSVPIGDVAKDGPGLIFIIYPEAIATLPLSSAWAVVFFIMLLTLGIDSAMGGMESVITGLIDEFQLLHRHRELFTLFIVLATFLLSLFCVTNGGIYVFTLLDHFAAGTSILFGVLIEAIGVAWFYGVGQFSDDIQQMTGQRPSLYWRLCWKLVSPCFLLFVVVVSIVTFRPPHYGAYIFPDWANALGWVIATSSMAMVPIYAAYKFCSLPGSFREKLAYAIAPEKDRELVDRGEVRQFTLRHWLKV

Row | Molecule | IC50 [1] | IC50 ([2]; cho-k1) | IC50 [3] | IC50 ([4]; hek293) | IC50 [5] | Ki [5] | Ki [1] | Ki ([2]; cho-k1) | IC50 [6] | Ki [6] | Ki [3] | IC50 ([5]; read-out: IC50) | Ki ([5]; read-out: Ki) | IC50 ([2]; read-out: IC50) | Ki ([2]; read-out: Ki) | Ki [4] | IC50 ([4]; read-out: IC50)
1 | CCOC(=O)[C@H](CCc1ccccc1)N[C@@H](C)C(=O)N1CCC[C@H]1C(=O)O | Not Active | Not Active | Not Active | Not Active |  |  |  |  |  |  |  |  |  |  |  |  | 
2 | POLYVINYL ALCOHOL | Not Active | Not Active | Not Active |  | Not Active | Not Active | Not Active | Not Active | Not Active | Not Active | Not Active |  |  |  |  |  | 
3 | CCC[C@@H]1C[C@@H](C(=O)N[C@@H]([C@H]2O[C@H](SC)[C@H](O)[C@@H](O)[C@H]2O)[C@H](C)Cl)N(C)C1 [CLINDAMYCIN] | Not Active | Not Active | Not Active | Not Active | Not Active |  |  |  | Not Active |  |  |  |  |  |  |  | 
4 | CN(Cc1cnc2nc(N)nc(N)c2n1)c1ccc(C(=O)N[C@@H](CCC(=O)O)C(=O)O)cc1 [METHOTREXATE] | Not Active | Not Active | Not Active | Not Active | Not Active |  |  |  | Not Active |  |  |  |  |  |  |  | 
5 | CO[C@@]1(NC(=O)CSCC#N)C(=O)N2C(C(=O)O)=C(CSc3nnnn3C)CS[C@@H]21 [CEFMETAZOLE] | Not Active | Not Active | Not Active | Not Active | Not Active |  |  |  | Not Active |  |  |  |  |  |  |  | 
6 | C[C@@H]1CC[C@H]2[C@@H](C)C(=O)O[C@@H]3O[C@@]4(C)CC[C@@H]1[C@]32OO4 [ARTEMISININ] | Not Active | Not Active | Not Active | Not Active | Not Active |  |  |  | Not Active |  |  |  |  |  |  |  | 
7 | CC(C(=O)O)c1ccc(CC2CCCC2=O)cc1 (configuration not stated) [LOXOPROFEN] | Not Active | Not Active | Not Active | Not Active | Not Active |  |  |  | Not Active |  |  |  |  |  |  |  | 
8 | CCCCCC[C@H]1C(=O)O[C@H](C)[C@H](NC(=O)c2cccc(NC=O)c2O)C(=O)O[C@@H](C)[C@@H]1OC(=O)CC(C)C [ANTIMYCIN A] | Not Active | Not Active | Not Active | Not Active | Not Active |  |  |  | Not Active |  |  |  |  |  |  |  | 
9 | C#C[C@]1(O)CC[C@H]2[C@@H]3CCc4cc(O)ccc4[C@H]3CC[C@@]21C [ETHINYL ESTRADIOL] | Not Active |  | Not Active |  |  |  |  |  | Not Active |  |  | 1.07 µM | 0.139 µM | 0.559 µM | 0.444 µM | 10.4 µM | 25.9 µM
10 | CC[C@H]1OC(=O)[C@H](C)[C@@H](O[C@H]2C[C@@](C)(OC)[C@@H](O)[C@H](C)O2)[C@H](C)[C@@H](O[C@@H]2O[C@H](C)C[C@H](N(C)C)[C@H]2O)[C@](C)(O)C[C@@H](C)CN(C)[C@H](C)[C@@H](O)[C@]1(C)O [AZITHROMYCIN] | Not Active | Not Active | Not Active | Not Active | Not Active |  |  |  | Not Active |  |  |  |  |  |  |  | 
11 | COc1ccc2cc(CCC(C)=O)ccc2c1 [NABUMETONE] | Not Active | Not Active | Not Active | Not Active | Not Active |  |  |  | Not Active |  |  |  |  |  |  |  | 
12 | CCCCC1C(=O)N(c2ccccc2)N(c2ccccc2)C1=O [PHENYLBUTAZONE] | Not Active | Not Active | Not Active | Not Active | Not Active |  |  |  | Not Active |  |  |  |  |  |  |  | 
13 | COc1ccc(Cc2nccc3cc(OC)c(OC)cc23)cc1OC [PAPAVERINE] | Not Active | Not Active | Not Active |  | Not Active |  |  |  | Not Active |  |  |  |  |  |  |  | 
14 | COBALT(II) ACETYLACETONATE | Not Active | Not Active | Not Active |  | Not Active | Not Active | Not Active | Not Active | Not Active | Not Active | Not Active |  |  |  |  |  | 
15 | Nc1nc(N)nc(NC2CC2)n1 [CYROMAZINE] | Not Active | Not Active | Not Active |  | Not Active |  |  |  | Not Active |  |  |  |  |  |  |  | 
16 | CCOC(=O)[C@H](CCc1ccccc1)N[C@@H](C)C(=O)N1Cc2ccccc2C[C@H]1C(=O)O | Not Active | Not Active | Not Active | Not Active | Not Active |  |  |  |  |  |  |  |  |  |  |  | 
17 | CC(C)C[C@H]1C(=O)N2CCC[C@H]2[C@]2(O)O[C@](NC(=O)[C@@H]3C=C4c5cccc6[nH]c(Br)c(c56)C[C@H]4N(C)C3)(C(C)C)C(=O)N12 [BROMOCRIPTINE] | Not Active | Not Active | Not Active |  | Not Active |  |  |  | Not Active |  |  |  |  |  |  |  | 
18 | Clc1cc2c(cc1Cl)Oc1cc(Cl)c(Cl)cc1O2 [2,3,7,8-TETRACHLORODIBENZO-P-DIOXIN] | Not Active | Not Active | Not Active |  | Not Active |  |  |  | Not Active |  |  |  |  |  |  |  | 
19 | CC(C(=O)O)c1ccc(-c2ccccc2)c(F)c1 (configuration not stated) [FLURBIPROFEN] | Not Active | Not Active | Not Active | Not Active |  |  |  |  | Not Active |  |  |  |  |  |  |  | 
20 | INSULIN HUMAN | Not Active | Not Active | Not Active |  | Not Active | Not Active | Not Active | Not Active | Not Active | Not Active | Not Active |  |  |  |  |  | 
21 | CN1C[C@H](C(=O)N[C@]2(C)O[C@@]3(O)[C@@H]4CCCN4C(=O)[C@H](Cc4ccccc4)N3C2=O)C[C@@H]2c3cccc4[nH]cc(c34)C[C@H]21 [DIHYDROERGOTAMINE] | Not Active | Not Active | Not Active |  | Not Active |  |  |  | Not Active |  |  |  |  |  |  |  | 

Reference: ChEMBL document CHEMBL1909046, “DrugMatrix in vitro pharmacology data”
